We go through four molecules from patent US4902617A, “Enzyme and process for producing the same” (Hoffmann-La Roche Inc., priority 1986, dated 1990).

The target in test [1] is T1, L-sorbosone dehydrogenase, purified from cytosol fraction of Gluconobacter oxydans UV-10 (FERM BP-1267) (Gluconobacter oxydans, UniProt Q47943).
T1 sequence (Q47943 1-498): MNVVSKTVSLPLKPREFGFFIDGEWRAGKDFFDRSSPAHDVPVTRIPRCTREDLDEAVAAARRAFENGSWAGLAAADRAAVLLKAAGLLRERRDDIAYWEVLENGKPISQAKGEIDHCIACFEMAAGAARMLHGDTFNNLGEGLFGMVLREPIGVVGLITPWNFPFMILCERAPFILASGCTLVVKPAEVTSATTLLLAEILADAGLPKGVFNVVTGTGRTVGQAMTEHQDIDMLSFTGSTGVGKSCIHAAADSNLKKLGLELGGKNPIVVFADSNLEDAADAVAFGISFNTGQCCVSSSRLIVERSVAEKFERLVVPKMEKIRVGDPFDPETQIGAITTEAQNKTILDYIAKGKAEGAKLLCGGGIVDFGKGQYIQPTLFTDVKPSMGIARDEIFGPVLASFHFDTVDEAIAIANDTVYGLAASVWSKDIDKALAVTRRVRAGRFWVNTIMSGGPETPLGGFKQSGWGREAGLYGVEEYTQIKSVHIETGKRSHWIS

The target in test [2] is T1, L-sorbosone dehydrogenase, purified from cytosol fraction of Gluconobacter oxydans UV-10 (FERM BP-1267). Description: biochemical. Particulars: pH 7, read-out: Relative Activity (%) in presence of substance.

For the molecule `CCN1C(=O)C=CC1=O` [N--Ethylmaleimide, N-Ethylmaleimide], in test [1] (summary of Table 8), the “Effect on enzyme activity (in words)” value is “inhibited the enzyme activity strongly”. In addition, in test [2], the activity at 1000 µM was determined as 0%. Take `O[C@H](CS)[C@H](O)CS` (racemic) [Dithiothreitol]: in test [2], the activity at 5000 µM was 119%. Still for that read-out and setting: for `O=C(O)CI` [ICH2 COONa] the value was 57.7%. For the molecule `[N-]=[N+]=[N-].[Na+]` [NaN3], in test [1] (substance conc. 5 mM, None = 100, pH 7.0, 30° C.), the “Relative Activity (%) in presence of substance” value amounted to 100%.
